Test results: patent publication US5393740A, “Neurotensin Hexapeptides” (Tsumura & Co., priority 1991, dated 1995)
*1 amine or outer side, *2 acyl side, *3 side chain or, on linkers, in order; H or OH if unused. Where a SMILES comes first, the peptide text is derived from it. [ ]: non-standard residue; d: D form. X2 = CCCCN([C@@H](CCCNC(=N)N)C(=O)[*:2])[*:1]; Leu(ol) = CC(C)C[C@H](N)CO

Columns and labels:
Sprague-Dawley (SD) rats = experiment: Vascular permeability acceleration suppression action (hot-water leg edema); assay type: in vivo, rat; details: suppression of rate of increase in leg volume vs control; 1 ml/kg into femoral vein 10 minutes before dipping leg in 58° C. hot water for one minute; male SD rats
Method: After 6-week male Sprague-Dawley (SD) rats (each group consisted of 10 rats) were fed for a week, they were used in this experiment.
The concentrations of samples of the hexapeptides (peptide Nos. 1 to 30) were dissolved by an acetic acid buffer solution added with a 1% bovine serum albumin (BSA).
An aliqrot of 1 ml/kg of each of the peptides Nos. 1 to 30 was injected into the femoral vein of the right leg of each rat anesthetized with 50 mg/kg of Nembutal Sodium (available from Dainippon Pharmaceutical Co., Ltd.). After 10 minutes, the nontreated left leg of the rat was dipped in 58° C. hot water for one minute to form an edema. Each rat was left at room temperature for 29 minutes, and the volumes of both legs of each rat were measured. As a control, the experiment following the same procedure as describe above was performed except that 1 ml/kg of a sodium acetate buffered solution containing 1% BSA instead of the hexapeptide of the present invention was injected in rats.
A rate (%) of increase in leg volume was calculated from the result of the above measurement by equation (1) below: [formula]
The rates were compared with that of the control.
- X: rate of increase in leg volume (%) of the present invention.
Xo: rate of increase in leg volume (%) of the control

thrombin = thrombin (Homo sapiens, UniProt P00734); experiment: Protease inhibition action (thrombin, synthetic coloring base S-2238); assay type: biochemical; details: thrombin final conc. 10 U/ml, preincubated at 37° C. for 5 minutes, S-2238 37° C. 15 minutes, 405 nm
Method: Each of peptides Nos. 1, 31 to 34 was mixed at various volume with thrombin (final conc. 10 U/ml), and the resultant mixture was preincubated at 37° C. for 5 minutes. A synthetic coloring base (Test Team^R S-2238 available from Daiichi Kagaku Yakuhin) was added to the above preincubated mixture and was reacted at 37° C. for 15 minutes.
2% citric acid was added to the above mixture to stop the reaction. Hydrolysis was performed using residual thrombin, and free p-nitroaniline removed from the synthetic coloring base was subjected to colorimetric determination at a wavelength of 405 nm, thereby obtaining the inhibition capability with reference to 0.1M tris buffer. On the base of the inhibition capability thus obtained, a concentration of the peptides when each peptide inhibited the activity of thrombin with 50%, i.e. IC50 was calculated.

ddY mice = experiment: Acute toxicity test; assay type: in vivo, mouse; details: intravenous injection, 2,000 times (64 μmol/kg) the effective amount
Method: An acute toxicity test of peptides Nos. 1, 31 and 32 of the present invention was performed by using, ddY mice. […] No toxic expression was therefore observed.

Wister rats = experiment: Anti-allergic action (passive cutaneous anaphylaxis reaction); assay type: in vivo, rat; details: PCA reaction, 32 nmol g/kg i.v. 10 minutes before provocation, control 188.3 ± 9.71
Method: In this experiment, 6-week, male Wister rats (each group consisted of 10 rats) were used, and the back of these rats were shaved.
An anti-egg albumin rat serum was diluted with a saline to forty-fold of its volume, thereby obtaining an anti-egg albumin rat serum solution. 1 ml of the anti-egg albumin rat serum solution was intradermally injected to both side parts against the median line in the shaved portion, thereby sensitizing passively the rats. After 48 hours, 1 ml of a 0.5% Evans blue solution containing 10 mg of a egg-albumin was intravenously injected to the each rat, thereby provocating a passive cutaneous anaphylaxis (PCA) reaction.
After 30 minutes, the rats were decapitated, thereby subjecting to hemorrhage to death. The skins were peeled from the rats, and a long diameter and a short diameter of a blue stained portions caused by the PCA reaction in each rat were measured, and area of the blue-stained portions were calculated on the base of the obtained data.
In these operations, the of peptides Nos. 1, 31 and 32 were dissolved in a sodium acetate buffered solution containing 1% BSA and was intravenously injected to each rat at 10 minutes before the provocation of the PCA reaction. As a control, the sodium acetate buffer solution containing 1% BSA instead of the peptide solutions was injected according to same procedure as described above.

Hybrid grown-up dogs = experiment: Anti-DIC action (platelet number after endotoxin); assay type: in vivo, dog
Method: Hybrid grown-up dogs (each group consisted of six dogs) were used in this experiment. 30 mg/kg of pentobarbital were intravenously injected to anesthetize each dog. Intravenous injection of 32 nmol/kg of each of peptides Nos. 1, 31 and 32 was performed. After 30 minutes, 3 mg/kg of an endotoxin derived from Escherichia Coli were intravenously injected while the artificial respiration was performed with air.
Samples of blood were collecting from each dog immediately before the injection of the peptides and 120 minutes after the injection of the endotoxin.
As a control, a experiment was performed according to same procedure as described above except that the hexapeptides was not injected.
The number of platelets is the number per 1 mm^3 (1 μl) of the blood in Table 7.

Wistar rats = experiment: Anti-edematous action (freezing-induced vascular cerebral edema); assay type: in vivo, rat; details: left cerebral cortex, 32 nmol/kg i.v. 10 minutes before and 20 minutes after the freezing, male Wistar rats, control 81.4
Method: In this experiment, 8-week male Wistar rats were used, and peptides Nos. 1, 31 and 32 dissolved in a saline added with 1% BSA were used.
Iron column whose diameter was 5 mm cooled by dryice acetone was placed on the left epidural portion of each rat to cause a vascular cerebral edema. Freezing was performed to form an injured portion after an hour, and the brain of each rat was taken out. The brain was divided into right and left cerebral cortices, and weights of the left cerebral cortices were measured. The left cerebral cortices was dried at 105° C. for 24 hours, and weights of the dried left cerebral cortices were measured to obtain water contents (%). In this operations, the peptides Nos. 1, 31 and 32 were intravenously injected at the concentration shown in Table 6 to each rat 10 minutes before and 20 minutes after the freezing. As a control, 1 ml/kg of the saline added with 1% BSA instead of the peptides was injected into rat according to same procedures as described above.

SD rats = experiment: Wound healing action (traction tension of skin wound); assay type: in vivo, rat; details: skin wound stripe, eighth day; 32 nmol/kg i.v. once a day for 8 days; male SD rats; control 456.2 ± 21.6
Description: The male SD rats (each group consisted of 10 rats) were anesthetized with ether and shaved in the back of the each rat, and the anesthetized portion was formed by a length of 30 mm along the median line by using a degreased, sterilized razor blade. The wound was immediately sutured at three equidistant positions, and the stitches were taken out after three days. The rats were subjected to hemorrhage to death in the eighth day, and the skins were peeled from the rats.
A skin stripe having a size of 1 cm×4 cm was formed from a wounded portion of each rat. Both ends of this stripe were set in a wound curing measurement tensile test instrument (TK-251 available from Unicom), and a tensile force (traction tension: g/cm) required to cut the wound portion was measured.
Each hexapeptide compound according to the present invention was dissolved in an acetic acid buffer solution added with 1% BSA and was intravenously injected to each rat for 8 days (once a day) from the date of wound formation. As a control, 1 ml/kg of the sodium acetat buffered solution added with 1% BSA instead of the hexapeptide solutions was injected according to same procedure as described above.

ICR mice = experiment: Anti-shock action (endotoxin-induced lethality); assay type: in vivo, mouse; details: 32 nmol/kg × 4 intravenously, endotoxin (LPS E. coli 0127B8) 10 mg/kg i.v. after 10 minutes; male ICR mice; control 80
Method: In this experiment, male ICR mice (each group consisted of 10 mice) each having a weight of 25 g to 35 g were used. Each of peptides Nos. 1, 31 and 32 was dissolved in a sodium acetate buffered solution (pH 6.0) added with 1% BSA or in a physiological saline.
An endotoxin to induce a shock was obtained by dissolving Lipopolysaccharide [E. coli; 0127B8 (Difco)] in a physiological saline.
Each of peptialdes Nos. 1, 31 and 32 was intravenously injected at a by dose of 5 ml/kg to each mouse, and the endotoxin with concentration of 10 mg/kg was intravenously injected at a dose of 5 ml/kg after 10 minutes. The lethal rates (%) of these mice within 24 hours were measured. As a control, 5 ml/kg of the sodium acetate buffered solution added with 1% BSA was injected instead of the hexapeptide of the present invention.

Q: How did the “Suppression Rate (%)” value (Sprague-Dawley (SD) rats) turn out when “Desamino-Arg-D-Lys--Pro--Trp--Ile-Leucinol [Peptide No. 23]” was run?
A: 20.8%

Q: `CC[C@H](C)[C@H](NC(=O)[C@H](Cc1ccc(O)cc1)NC(=O)[C@@H]1CCCN1C(=O)[C@H](CCCNC(=N)N)NC(=O)[C@H](CCCNC(=N)N)NC(C)=O)C(=O)N[C@H](CO)CC(C)C` [Peptide No. 31, N-acetyl--Arg--Arg--Pro--Tyr--Ile-Leucinol] was tested. Which IC50 (thrombin) did it give?
A: 2.3 µM

Q: What about the “acute toxicity (death)” value (ddY mice) of the same molecule?
A: No mice were dead

Q: What does the source list for `CC[C@H](C)[C@H](NC(=O)[C@H](Cc1ccc(O)cc1)NC(=O)[C@@H]1CCCN1C(=O)[C@H](CCCNC(=N)N)NC(=O)CCCCNC(=N)N)C(=O)N[C@@H](CC(C)C)C(=O)O` [Peptide No. 1, Desamino-Arg--Arg--Pro--Tyr--Ile--Leu--OH]?
A: IC50 (thrombin): 2.5 µM; acute toxicity (death) (ddY mice): No mice were dead

Q: For `CC[C@H](C)[C@H](NC(=O)[C@H](Cc1ccc(O)cc1)NC(=O)[C@@H]1CCCN1C(=O)[C@H](CCCNC(=N)N)NC(=O)[C@H](CCCNC(=N)N)NC(C)=O)C(=O)N[C@@H](CC(C)C)C(N)=O` [Peptide No. 32, N-acetyl--Arg--Arg--Pro--Tyr--Ile--Leu--NH2], which “Area of blue-stained portion (mm^2)” value (Wister rats) is on record?
A: 112.8 ± 4.83 mm^2

Q: What about the “Average Number of Platelets 120 Minutes after Venous Injection of Endotoxin” value (Hybrid grown-up dogs; 32 nmol/kg i.v. 30 minutes before 3 mg/kg E. coli endotoxin i.v., control 43 × 10^4) of the same molecule?
A: 58 × 10^4 per 1 mm^3 (1 μl) of the blood

Q: What about the “Average Number of Platelets Immediately before Injection Endotoxin” value (Hybrid grown-up dogs; 32 nmol/kg i.v., baseline sample, control 72 × 10^4) of the same molecule?
A: 71 × 10^4 per 1 mm^3 (1 μl) of the blood

Q: And the IC50 (thrombin)?
A: 2.2 µM

Q: What about the “acute toxicity (death)” value (ddY mice) of the same molecule?
A: No mice were dead

Q: And the “Water Content (%)” value (Wistar rats)?
A: 80.6%

Q: And the “Traction Tension” value (SD rats)?
A: 547.0 ± 32.3 g/cm

Q: And the “Lethal rate within 24 hours (%)” value (ICR mice)?
A: 20%

Q: For `CCCCN[C@@H](CCCNC(=N)N)C(=O)N[C@@H](CCCNC(=N)N)C(=O)N1CCC[C@H]1C(=O)N[C@@H](Cc1ccc(O)cc1)C(=O)N[C@H](C(=O)N[C@H](CO)CC(C)C)[C@@H](C)CC` [Peptide No. 33, N-buthyl--Arg--Arg--Pro--Tyr--Ile--Leucinol] (H-[X2]RPYI[Leu(ol)]), which IC50 (thrombin) is on record?
A: 2.3 µM
